This note sets out measurements from PubChem BioAssay AID248 (DTP/NCI, 2004).

For the assay, the system named is L1210 leukemia ip in BDF1 mice, survival T/C. Put plainly: NCI In Vivo Anticancer Drug Screen. Data for tumor model L1210 Leukemia (intraperitoneal) in B6D2F1 (BDF1) mice. The following applies: endpoint: mean survival time, higher = longer survival. The gist of the method: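 Antitumor effect is assessed in tumor-bearing animals. Survival in the compound arm is compared with a vehicle-dosed control arm and expressed as their quotient.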

Where [1] appears, read: dose: 100.0 mg/kg/injection, schedule: Q04DX002 (ip), vehicle: saline with Tween-80.
Setting [2] is: dose: 200.0 mg/kg/injection, schedule: Q04DX002 (ip), vehicle: saline with Tween-80.
Where [3] appears, read: dose: 400.0 mg/kg/injection, schedule: Q04DX002 (ip), vehicle: saline with Tween-80.
Setting [4] is: dose: 100.0 mg/kg/injection, schedule: Q01DX001 (ip), vehicle: carboxymethylcellulose (CMC).
[5] abbreviates: dose: 200.0 mg/kg/injection, schedule: Q01DX001 (ip), vehicle: carboxymethylcellulose (CMC).
Where [6] appears, read: dose: 400.0 mg/kg/injection, schedule: Q01DX001 (ip), vehicle: carboxymethylcellulose (CMC).
[7] abbreviates: dose: 100.0 mg/kg/injection, schedule: Q01DX009 (ip), vehicle: saline with Tween-80.
The mark [8] stands for this setting: dose: 100.0 mg/kg/injection, schedule: Q04DX003 (ip), vehicle: saline with Tween-80.
The mark [9] stands for this setting: dose: 200.0 mg/kg/injection, schedule: Q01DX009 (ip), vehicle: saline with Tween-80.
[10] abbreviates: dose: 200.0 mg/kg/injection, schedule: Q04DX003 (ip), vehicle: saline with Tween-80.
Where [11] appears, read: dose: 400.0 mg/kg/injection, schedule: Q04DX003 (ip), vehicle: saline with Tween-80.
The mark [12] stands for this setting: dose: 100.0 mg/kg/injection, schedule: Q01DX009 (ip), vehicle: Klucel (hydroxypropylcellulose) (HPC).
The mark [13] stands for this setting: dose: 100.0 mg/kg/injection, schedule: Q04DX003 (ip), vehicle: Klucel (hydroxypropylcellulose) (HPC).
The mark [14] stands for this setting: dose: 200.0 mg/kg/injection, schedule: Q01DX009 (ip), vehicle: Klucel (hydroxypropylcellulose) (HPC).
[15] abbreviates: dose: 200.0 mg/kg/injection, schedule: Q04DX003 (ip), vehicle: Klucel (hydroxypropylcellulose) (HPC).
[16] abbreviates: dose: 400.0 mg/kg/injection, schedule: Q04DX003 (ip), vehicle: Klucel (hydroxypropylcellulose) (HPC).
Where [17] appears, read: dose: 400.0 mg/kg/injection, schedule: Q01DX009 (ip), vehicle: Klucel (hydroxypropylcellulose) (HPC).
[18] abbreviates: dose: 50.0 mg/kg/injection, schedule: Q01DX009 (ip), vehicle: saline with Tween-80.

Inconclusive results and toxic doses are left out.

As for `O=C1OC2C(Br)CC(Br)CC2C=C1c1ccc([N+](=O)[O-])cc1` (configuration not stated), the T/C was 90 % of control under setting [1], 90 % of control under setting [2] and 93 % of control under setting [3].
For the compound `Cc1ccnc(NS(=O)(=O)c2ccc(N=Nc3c(N)nc(N)[nH]c3=O)cc2)n1`, the T/C was 103 % of control under setting [4], 97 % of control under setting [5] and 103 % of control under setting [6].
Take `CC(CCC(=O)O)([N+](=O)[O-])[N+](=O)[O-]`: the T/C (dose: 100.0 mg/kg/injection, schedule: Q01DX001 (ip), vehicle: Klucel (hydroxypropylcellulose) (HPC)) is 98 % of control; the T/C (dose: 200.0 mg/kg/injection, schedule: Q01DX001 (ip), vehicle: Klucel (hydroxypropylcellulose) (HPC)) was 102 % of control; the T/C (dose: 400.0 mg/kg/injection, schedule: Q01DX001 (ip), vehicle: Klucel (hydroxypropylcellulose) (HPC)) was 98 % of control.
Consider `CSc1ccc(NC(=O)Nc2ccc([N+](=O)[O-])cc2C)cc1`, for which the T/C is, setting by setting: under setting [1], 98 % of control; under setting [2], 95 % of control; under setting [3], 91 % of control.
For `Cc1ccc(S(=O)(=O)ON/N=C2\C(=O)C3CCC2C3)cc1` (configuration not stated), the T/C under setting [1] is 95 % of control.
In the case of `CC1CC(=O)NC(=O)N1` (configuration not stated), the T/C under setting [7] is 98 % of control; the T/C under setting [8] was 105 % of control; the T/C under setting [9] was 100 % of control; the T/C under setting [10] was 93 % of control; the T/C (dose: 400.0 mg/kg/injection, schedule: Q01DX009 (ip), vehicle: saline with Tween-80) was 106 % of control; the T/C under setting [11] is 107 % of control.
Consider `CCC(C)C(CN)(CCCN1CCCCC1)c1cccc2ccccc12` (configuration not stated), for which the T/C by setting is: (dose: 100.0 mg/kg/injection, schedule: Q04DX003 (ip), vehicle: saline) 97 % of control; (dose: 200.0 mg/kg/injection, schedule: Q04DX003 (ip), vehicle: saline) 95 % of control.
As to `CC(=O)CC(C)(C)S(=O)(=O)O`, the T/C is 100 % of control (dose: 100.0 mg/kg/injection, schedule: Q01DX001 (ip), vehicle: saline); 100 % of control (dose: 200.0 mg/kg/injection, schedule: Q01DX001 (ip), vehicle: saline); 100 % of control (dose: 400.0 mg/kg/injection, schedule: Q01DX001 (ip), vehicle: saline).
With `COC1OC2COC(C)(C)OC2C1OS(=O)(=O)c1ccc(C)cc1` (configuration not stated), the T/C was 104 % of control under setting [4], 96 % of control under setting [5] and 107 % of control under setting [6].
Regarding `OC(CCCCC(O)(c1ccccc1)c1ccccc1)(c1ccccc1)c1ccccc1`, the T/C is 89 % of control under setting [8], 94 % of control under setting [10] and 96 % of control under setting [11].
For the compound `O=CNNc1ccc([N+](=O)[O-])cc1`, the T/C (dose: 50.0 mg/kg/injection, schedule: Q01DX009 (ip), vehicle: Klucel (hydroxypropylcellulose) (HPC)) was 97 % of control; the T/C under setting [12] is 100 % of control; the T/C under setting [13] is 94 % of control; the T/C under setting [14] was 86 % of control; the T/C under setting [15] is 94 % of control; the T/C under setting [16] is 94 % of control.
In the case of `Cc1ccc(S(=O)(=O)N(CCCc2c(Cl)nc(N)nc2Cc2ccccc2)c2ccccc2)cc1`, the T/C is 97 % of control (dose: 100.0 mg/kg/injection, schedule: Q04DX003 (ip), vehicle: gum acacia); 92 % of control (dose: 200.0 mg/kg/injection, schedule: Q04DX003 (ip), vehicle: gum acacia); 94 % of control (dose: 400.0 mg/kg/injection, schedule: Q04DX003 (ip), vehicle: gum acacia).
In the case of `COC(=O)N/N=C/c1ccc(NC(C)=O)cc1`, the T/C by setting is: under setting [12], 95 % of control; under setting [14], 101 % of control; under setting [17], 97 % of control.
In the case of `COc1ccc2c(c1)C(=O)CCN2`, the T/C by setting is: under setting [12], 100 % of control; under setting [13], 102 % of control; under setting [14], 95 % of control; under setting [15], 104 % of control; under setting [16], 93 % of control.
`CCCCCCOc1ccc(CC(N)C(=O)O)cc1N(CCCl)CCCl` (configuration not stated): the T/C reads like this: (dose: 2.5 mg/kg/injection, schedule: Q01DX009 (ip), vehicle: carboxymethylcellulose (CMC)) 119 % of control; (dose: 4.4 mg/kg/injection, schedule: Q01DX001 (ip), vehicle: carboxymethylcellulose (CMC)) 109 % of control; (dose: 6.6 mg/kg/injection, schedule: Q01DX001 (ip), vehicle: carboxymethylcellulose (CMC)) 115 % of control; (dose: 8.5 mg/kg/injection, schedule: Q01DX001 (ip), vehicle: carboxymethylcellulose (CMC)) 117 % of control; (dose: 10.0 mg/kg/injection, schedule: Q01DX001 (ip), vehicle: carboxymethylcellulose (CMC)) 110 % of control; (dose: 13.0 mg/kg/injection, schedule: Q01DX001 (ip), vehicle: carboxymethylcellulose (CMC)) 117 % of control. In addition, the T/C (dose: 15.0 mg/kg/injection, schedule: Q01DX001 (ip), vehicle: carboxymethylcellulose (CMC)) is 116 % of control; the T/C (dose: 15.0 mg/kg/injection, schedule: Q01DX009 (ip), vehicle: carboxymethylcellulose (CMC)) is 152 % of control; the T/C (dose: 20.0 mg/kg/injection, schedule: Q01DX001 (ip), vehicle: carboxymethylcellulose (CMC)) is 122 % of control; the T/C (dose: 22.5 mg/kg/injection, schedule: Q01DX009 (ip), vehicle: carboxymethylcellulose (CMC)) was 113 % of control; the T/C (dose: 30.0 mg/kg/injection, schedule: Q01DX001 (ip), vehicle: carboxymethylcellulose (CMC)) was 122 % of control.
In the case of `CC(=O)OC1=C(CC(C)(C)C)C(=O)c2ccccc2C1=O`, the T/C runs as follows: (dose: 50.0 mg/kg/injection, schedule: Q01DX001 (ip), vehicle: carboxymethylcellulose (CMC)) 103 % of control; under setting [4], 103 % of control; under setting [5], 100 % of control; under setting [6], 105 % of control.
Turning to `CC(C)(C)c1ccc(N)c([N+](=O)[O-])c1`, the T/C was 102 % of control under setting [18], 87 % of control under setting [7] and 102 % of control under setting [9].
As for `O=C1CN=C(c2ccccc2Cl)c2cc([N+](=O)[O-])ccc2N1`, the T/C is, setting by setting: (dose: 100.0 mg/kg/injection, schedule: Q04DX002 (ip), vehicle: Klucel (hydroxypropylcellulose) (HPC)) 93 % of control; (dose: 200.0 mg/kg/injection, schedule: Q04DX002 (ip), vehicle: Klucel (hydroxypropylcellulose) (HPC)) 108 % of control; (dose: 400.0 mg/kg/injection, schedule: Q04DX002 (ip), vehicle: Klucel (hydroxypropylcellulose) (HPC)) 86 % of control.
Consider `CC(=NC(c1ccccc1)c1ccccc1)N(C)C`, for which the T/C under setting [1] is 104 % of control.
Turning to `NC(=S=O)c1ccccc1`, the T/C by setting is: under setting [18], 93 % of control; (dose: 50.0 mg/kg/injection, schedule: Q01DX009 (ip), vehicle: saline) 101 % of control; under setting [7], 97 % of control; (dose: 100.0 mg/kg/injection, schedule: Q01DX009 (ip), vehicle: saline) 96 % of control; under setting [9], 93 % of control; (dose: 200.0 mg/kg/injection, schedule: Q01DX009 (ip), vehicle: saline) 104 % of control.
Consider `S=C(Nc1ccccc1)Nc1ncn[nH]1`, for which the T/C by setting is: (dose: 75.0 mg/kg/injection, schedule: Q01DX001 (ip), vehicle: carboxymethylcellulose (CMC)) 95 % of control; (dose: 150.0 mg/kg/injection, schedule: Q01DX001 (ip), vehicle: carboxymethylcellulose (CMC)) 98 % of control; (dose: 300.0 mg/kg/injection, schedule: Q01DX001 (ip), vehicle: carboxymethylcellulose (CMC)) 88 % of control.
Consider `Cc1ccc([N+](=O)[O-])cc1N1CCNC1=O`, for which the T/C was 104 % of control under setting [12]; 102 % of control under setting [13]; 102 % of control under setting [14]; 98 % of control under setting [15]; 100 % of control under setting [17]; 101 % of control under setting [16].
Regarding `COc1ccc(/C=N/N2CCN(/N=C/c3ccc(OC)cc3)CC2)cc1`, the T/C under setting [4] is 88 % of control, the T/C under setting [5] was 88 % of control and the T/C under setting [6] is 93 % of control.
